Here are results for 26 molecules from ChEMBL document CHEMBL1201862, “PubChem BioAssay data set” (2004).

SMILES strings stand for the structures. Active and inactive are the calls of the source. Rule as the data show it, for most assays here: actives have a measured EC50 and inactives only a lower limit.

Experiment [1] deals with Streptococcus sp. 'group A'. Description: Streptococcus pyogenes SK(-)GAS viability under kanamycin – luminescence, BacTiterGlo, confirmation, counter-screen for streptokinase expression inhibitor project, dose response (AID 1900). The class given is functional, organism-based.
For a further experiment, the target named is T1, Streptokinase A (Streptococcus pyogenes serotype M1, UniProt P10520).
T1 sequence (P10520 whole entry): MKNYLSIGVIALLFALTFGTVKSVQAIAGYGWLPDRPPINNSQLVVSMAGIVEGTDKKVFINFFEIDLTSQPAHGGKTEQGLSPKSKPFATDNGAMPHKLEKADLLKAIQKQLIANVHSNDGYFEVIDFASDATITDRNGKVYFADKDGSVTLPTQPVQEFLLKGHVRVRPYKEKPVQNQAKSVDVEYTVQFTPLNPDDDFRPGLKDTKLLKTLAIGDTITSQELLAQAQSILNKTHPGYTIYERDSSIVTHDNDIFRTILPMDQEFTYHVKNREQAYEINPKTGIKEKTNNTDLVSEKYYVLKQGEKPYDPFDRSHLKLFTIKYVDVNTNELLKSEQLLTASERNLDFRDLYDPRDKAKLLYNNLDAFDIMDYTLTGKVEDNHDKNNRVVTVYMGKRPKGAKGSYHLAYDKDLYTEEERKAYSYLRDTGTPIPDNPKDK
Description: viability-normalized secreted streptokinase activity reduction – plasminogen activation absorbance, OD405, dose response (AID 1914).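 Also: secreted streptokinase activity via plasminogen activation per viability signal from cell pellet.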 It counts as functional, Streptococcus pyogenes M1 GAS.

Another experiment has as its system Streptococcus. Description: GAS UMAA2166 growth inhibition – luminescence, BacTiterGlo, counter-screen for streptokinase expression inhibitor project, dose response (AID 1915).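 Also: potency for reduction of bacterial viability or growth.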 It counts as functional, organism-based. For orientation: Counterscreens check selectivity or assay interference.
Experiment [2] can be described thus: Luminescence Cell-Based Dose Retest to Confirm Inhibitors of Cancer Stem Cells. [Related pubchem assays (depositor defined):AID2717, AID2721]. The class given is functional. The settings on record: Homo sapiens.
In experiment [3] the target is T2, Corticotropin-releasing factor receptor 2/Corticotropin-releasing factor-binding protein (Homo sapiens, UniProt P24387+Q13324).
T2 sequence (Q13324 whole entry): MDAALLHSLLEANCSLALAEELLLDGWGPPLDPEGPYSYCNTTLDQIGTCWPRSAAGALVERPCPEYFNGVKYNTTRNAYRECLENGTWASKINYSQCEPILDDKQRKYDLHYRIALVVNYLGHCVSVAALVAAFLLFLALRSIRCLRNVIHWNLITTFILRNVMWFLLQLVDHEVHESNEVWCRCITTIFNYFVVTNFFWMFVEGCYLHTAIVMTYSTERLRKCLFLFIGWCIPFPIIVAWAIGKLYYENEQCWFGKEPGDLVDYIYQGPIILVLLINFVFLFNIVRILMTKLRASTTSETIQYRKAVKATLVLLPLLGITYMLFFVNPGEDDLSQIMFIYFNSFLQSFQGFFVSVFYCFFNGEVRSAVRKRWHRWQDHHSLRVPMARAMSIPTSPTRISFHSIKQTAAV
T2 sequence (P24387 whole entry): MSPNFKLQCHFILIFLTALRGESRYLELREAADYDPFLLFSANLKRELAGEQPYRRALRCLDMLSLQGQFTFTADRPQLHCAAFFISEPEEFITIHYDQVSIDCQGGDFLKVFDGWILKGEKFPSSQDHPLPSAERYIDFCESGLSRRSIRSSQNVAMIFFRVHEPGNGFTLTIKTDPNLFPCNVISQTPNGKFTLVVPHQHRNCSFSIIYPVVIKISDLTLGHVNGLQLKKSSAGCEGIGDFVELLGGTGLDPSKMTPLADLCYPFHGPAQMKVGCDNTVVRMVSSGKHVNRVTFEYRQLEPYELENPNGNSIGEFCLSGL
Description: activators of CRF receptor 2 with binding protein – uHTS hits, confirmation (AID 602473). The class given is functional. As to conditions: read-out: EC50_Mean.

Experiment [4] is described as follows: Trypanosoma cruzi growth suppression in host cells – NIH3T3 host cells, beta-gal luminescence, confirmation (AID 2044).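 Also: intracellular parasites grown in NIH/3T3 mouse fibroblasts as host cells; luminescent beta-galactosidase reporter signal from transgenic T. cruzi replicating inside host cells; inhibitors lower the luminescence signal.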 The class given is functional, cell-based.
The nature of experiment [5]: viability of PTEN-deleted HCT116 cells – cell-based, HCT116 PTEN knockout, dose response (AID 1047).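 Also: HCT116 colon tumor cells with PTEN knocked out; cells exposed to compound for 60 hours before readout; potency for loss of cell viability measured by luminescence.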 The class given is functional.
Experiment [6] can be described thus: NIH3T3 cell viability loss – ATP luminescence, mouse fibroblasts, counter-screen, dose response (AID 2010).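 Also: cells exposed to compound for about 90 hours before reading.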 The class given is functional, cell-based.
The nature of experiment [7]: viability of HCT116 lacking mutant beta-catenin – cell-based, human colon tumor, dose response (AID 1045).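 Also: HCT116 colon tumor cells with beta catenin knocked out; cells exposed to compound for 60 hours.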 The class given is functional.
In experiment [8] the target is T2, Corticotropin-releasing factor receptor 2/Corticotropin-releasing factor-binding protein. Briefly: Dose Response confirmation of uHTS hits for small molecule antagonists of the CRF-binding protein and CRF-R2 receptor complex. The class given is functional. As to conditions: read-out: IC50_Mean.
The nature of experiment [9]: NIH-3T3 fibroblast cytotoxicity, dose response, cytotoxicity control, cell-based, fluorescence, Alamar Blue, secondary assay (AID 2327).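 Also: NIH-3T3 mouse fibroblasts cultured with fluconazole at 8 µg/mL.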 The class given is functional. (The colour change of resazurin is a common sign of viable cells or microbes.)
Experiment [10] in a line: fluconazole-exposed Candida albicans growth modulators – fluorescence, retest, confirmation (AID 2467). The class given is functional, cell-based.
A short description of experiment [11]: viability of uninfected HEp-2 cells – cell-based, HTS, cytotoxicity control for RSV inhibitor project, dose response (AID 2410). The class given is functional. The settings on record: human respiratory syncytial virus.
Experiment [12] is described as follows: luciferase reporter signal suppression in cells – H4 neuroglioma cells, luminescence, dose response (AID 1990). It counts as functional, cell-based. (A reporter such as luciferase makes a cellular process visible.)
Experiment [13] is described as follows: Luminescence Cell-Based Dose Response HTS to Identify Inhibitors of 5'UTR Stem-Loop Driven Prion Protein mRNA Translation in H4 Neuroglioblastoma Cells. [Related pubchem assays: 1827 (Project Summary), 1813 (Primary HTS)]. It counts as functional.
Experiment [14] is described as follows: alpha-synuclein stem-loop luciferase translation blockers – H4 neuroglioma cells, luminescence, confirmation (AID 1988). The class given is functional, cell-based.
The target of another experiment is Paired box protein Pax-8 (Homo sapiens, UniProt Q06710). Description: PAX8 transcriptional activity inhibition in RMG-I – RMG-I cells, luciferase, cherry-pick, dose response (AID 687027).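 Also: luciferase reporter driven by Pax8 target thyroperoxidase promoter measured by SteadyGlo luminescence.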 The class given is functional, cell-based.
Paired box protein Pax-8, sequence (Q06710 whole entry): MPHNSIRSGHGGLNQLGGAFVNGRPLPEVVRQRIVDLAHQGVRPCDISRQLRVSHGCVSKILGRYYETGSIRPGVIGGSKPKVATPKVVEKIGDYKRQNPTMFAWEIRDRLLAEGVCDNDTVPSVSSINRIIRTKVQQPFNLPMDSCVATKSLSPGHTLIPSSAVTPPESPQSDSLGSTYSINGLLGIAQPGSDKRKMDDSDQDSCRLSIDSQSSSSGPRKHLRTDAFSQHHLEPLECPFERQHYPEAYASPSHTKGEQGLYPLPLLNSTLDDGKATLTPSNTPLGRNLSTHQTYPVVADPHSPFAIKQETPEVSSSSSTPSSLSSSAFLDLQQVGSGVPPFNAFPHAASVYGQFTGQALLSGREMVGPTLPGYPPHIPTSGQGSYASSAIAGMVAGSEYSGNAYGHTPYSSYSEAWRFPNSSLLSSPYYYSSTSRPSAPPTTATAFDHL
The test system of another experiment is H4. Briefly: Luminescence Cell-Based Dose Response HTS to Identify Activators of 5'UTR Stem-Loop Driven Prion Protein mRNA Translation in H4 Neuroglioblastoma Cells. [Related pubchem assays: 1829 (Project Summary), 1814 (Primary HTS)]. The class given is functional. The settings on record: Homo sapiens.
Experiment [15] can be described thus: Luminescence Cell-Based Dose Response HTS to Identify Activators of Luciferase Translation or Activity in H4 […] Cells. [Related pubchem assays: 1829 (Project Summary), 1814 (Primary HTS)]. The class given is functional.

Consider `CCSc1cc(N2CCCC2)nc(-c2ccccc2)n1`, for which the EC50 in [1] was > 150 µM (not active); at Streptokinase A, 66.1 µM (active); in the experiment on Streptococcus, > 150 µM (not active).
A word on the AC50: it is the concentration at which the activity in the assay is half-maximal. Regarding `Cc1c(O)cc2c(c1O)C(=O)CC(c1ccccc1)O2` (stereo unspecified) [STROBOPININ], in experiment [2], the half-maximal activity concentration (AC50) is 4.97 µM (active). In addition, the EC50 in [3] is 2.69 µM (active).
Take `Oc1c2cnnc-2nc(SCc2c(F)cccc2F)n1-c1ccc(Cl)cc1`: the EC50 in [1] is 14.1 µM (active); at Streptokinase A, > 150 µM (not active); in the experiment with Streptococcus it was > 150 µM (not active).
Consider `Cc1ccc(S(=O)(=O)N(CC(=O)Nc2ccc(Cl)c([N+](=O)[O-])c2)C2CCCCC2)cc1`, for which the EC50 in experiment [4] is 3.08 µM (active); in experiment [5], 16.2 µM (active); in [6] it was > 60 µM (not active); in [7] it was 19 µM (active).
For the molecule `CCOC(=O)c1sc(Nc2nc3ccc(OC)cc3s2)cc1C`, the EC50 is 9.29 µM (active) in [1], > 150 µM (not active) at Streptokinase A and 8.88 µM (active) in the experiment with Streptococcus.
For the molecule `O=C(CC1Nc2ccccc2NC1=O)Nc1ccccc1` (stereo unspecified), the AC50 in experiment [2] is 0.568 µM (active).
`COc1ccc(NC(=O)c2cc(-c3ccccc3OC)on2)cc1`: the half-maximal activity concentration (AC50) in experiment [2] is 0.248 µM (active). Also, the IC50 in [8] was > 47.1 µM (inactive). The EC50 in experiment [3] was > 53 µM (inactive).
In the case of `Cc1ccc(Cn2ccc(NC(=O)c3cc(C)on3)n2)cc1`, the EC50 in [9] is > 150 µM (inactive); in experiment [10], > 38 µM (not active).
One may read the CC50 as the concentration giving 50% cytotoxicity. Take `Oc1nc(NN=C(S)NC2CCCCC2)nc2c1C1(CCCC1)Cc1ccccc1-2`: in experiment [11], the CC50 is 25.7 µM (active). The values for the EC50 (in [1]; at Streptokinase A; in the experiment on Streptococcus) were 5.2 µM (active), 16.1 µM (active) and 17.2 µM (active), respectively.
In the case of `COC(=O)c1ccc(NS(=O)(=O)c2cc(-c3cc(C)no3)ccc2OC)cc1`, the EC50 in experiment [9] was 127 µM (active); in experiment [10], > 38 µM (not active).
On to `CCc1c(C)c(C#N)c2nc3ccccc3n2c1S`, for which the EC50 in experiment [1] was 14.6 µM (active); at Streptokinase A, > 150 µM (not active); with Streptococcus it was 21.5 µM (active).
With `Cc1nn(-c2ccccc2)c(Cl)c1C1C(C#N)=C(N)OC2=C1C(=O)CCC2` (stereo unspecified), the EC50 in experiment [1] is 1.77 µM (active); on Streptokinase A it was > 150 µM (not active); in the experiment with Streptococcus, 15.9 µM (active).
Regarding `COC(=O)[C@@H]1CCCN1Cc1nc(Cc2ccccc2F)no1`, the EC50 in [9] was > 160 µM (inactive); in experiment [10], > 38 µM (not active).
Take `O=C(CSc1ccc2ccccc2n1)N/N=C/c1ccccc1O`: the figures for the EC50 (in [1]; on Streptokinase A; in the experiment with Streptococcus) were 1.1 µM (active), > 150 µM (not active) and 2.9 µM (active), respectively.
As to `COc1ccc(O)c(/C=N/NC(=O)c2ccc(N3CCCC3=O)cc2)c1`, the EC50 in [9] was > 160 µM (inactive); in [12] it was 14.8 µM (active); in experiment [13] it was 16.3 µM (active); in experiment [14], 12.5 µM (active). For the same molecule, the AC50 at Paired box protein Pax-8 was < 0.26 µM (active).
Take `Cc1cccc(Nc2nnc(-c3ccc(N4CCOCC4)c([N+](=O)[O-])c3)c3ccccc23)c1`: the EC50 in experiment [1] is 3.77 µM (active); at Streptokinase A, > 150 µM (not active); in the experiment with Streptococcus it was 125 µM (active).
As to `Cc1cc(C(=O)COC(=O)C2=COCCO2)c(C)n1-c1cccc(F)c1`, the EC50 in the experiment with H4 is 0.887 µM (active).
`Cc1nn(-c2nc3ccccc3s2)c(N)c1Sc1ccc(F)cc1`: the EC50 in [5] is 15.5 µM (active); in experiment [7], 19.6 µM (active).
As to `O=C(/C=C/c1ccc(N2CCCCC2)c([N+](=O)[O-])c1)c1ccc(S(=O)(=O)N2CCCC2)cc1`, the EC50 is 4.4 µM (active) in [5] and 3.42 µM (active) in experiment [7].
As for `CCCc1nc2ccccc2c(C(=O)OCC(=O)N2CCc3ccccc32)c1CC`, the results for the EC50 in experiment [4] and in experiment [6] were 0.496 µM (active) and > 60 µM (not active), respectively. In addition, the half-maximal activity concentration (AC50) in experiment [2] was 3.04 µM (active).
For `COCCn1c(SCC(=O)Nc2ccc(F)cc2)nc2c3ccccc3nc-2c1O`, the EC50 (in experiment [1]; at Streptokinase A; in the experiment with Streptococcus) was > 150 µM (not active) in each case.
`Fc1ccccc1COc1ccc(-c2nnn(Cc3ccccc3F)n2)cc1`: the AC50 in experiment [2] was 5.63 µM (active).
`S=C(NCCN1CCOCC1)NC1CCCC1`: the EC50 was > 150 µM (inactive) in experiment [9] and > 38 µM (not active) in experiment [10].
Take `COc1cc(OC)cc(-c2cc3nc4c(c(N5CCN(c6ncccn6)CC5)n3n2)CCCC4)c1`: the EC50 was 13.2 µM (active) in experiment [1], > 150 µM (not active) on Streptokinase A and 106 µM (active) in the experiment on Streptococcus.
With `COc1cc2c(cc1NC(=O)c1ccccc1F)CCCC2`, the EC50 in experiment [15] is 89.6 µM (active); in the experiment with H4, > 120 µM (not active).
Turning to `CCC/C(=C1/c2ccccc2C(=O)N1c1ccccc1)c1ccc2[nH]ccc2c1`, in [2], the AC50 is 1.04 µM (active).
